The IC50 is the concentration that inhibits the measured activity by half.

In patent publication US10548894B2, “Combination therapy” (Array BioPharma Inc., priority 2013, dated 2020) one finds IC50 data, which are given here for one compound.

Common to all, as to format: cell-based
The subject of assay [1] is A-375 cells expressing truncated p61-BRAFV600E. Nature of the assay: Microscopy imaging assay (viable nuclei count), 72 h. The settings on record: Homo sapiens, A-375 p61 BRafV600E, single agent. The method, then:
(§1) Compound stocks are prepared in DMSO at a final concentration of 10 mM.
(§2) A-375 and WM-266-4 cells were purchased from American Type Culture Collection (ATCC). The A-375 cells were cultured in DMEM medium (ATCC) and the WM-266-4 cells were cultured in EMEM medium (ATCC) both supplemented with 10% fetal bovine serum (Gibco) and incubated at 37° C./5% CO2. The cell lines engineered to express commonly occurring alleles indicative of resistance were acquired from Novartis-Emeryville. These resistant models include, A-375 cells expressing mutant MEK1P124L, truncated p61-BRAFV600E, or mutant NRASQ61K, and WM-266-4 cells expressing mutant MEK1C121S, truncated p61-BRAFV600E, or mutant NRASQ61K. These cells were cultured in the appropriate parental medium with selection marker G418 and in the presence of 5 uM LFE158 (MEK mutants) or LIH720 (truncated p61-BRAFV600E).
(§3) For screening, cells were seeded in 80 ul of medium in 384-well plates (Thermo Scientific, cat#4332) at 500 (A-375) or 750 (WM-266-4) cell densities per well using a MultiDrop Combi (Thermo-Fisher) with an 8-channel standard cassette. To promote an even distribution of cells across the entire well, cells were briefly centrifuged at 1000 RPM and incubated at room temperature 30 minutes. All plates were incubated at 37° C., 5% CO2 for 24 h prior to compound addition. Compound stock was freshly prepared in the appropriate culture medium, and added using a PAA robot equipped with a 200n1 pin tool. In a minimum of three replicate wells, single agent and combination effects after 72 hours, were assessed by both quantification of cellular ATP levels via Cell Titer Glo (Promega) according to the manufacturer's protocol and by microscopy imaging. […]
(§4) An automated image analysis pipeline was established using custom-made scripts in the open-source, statistical programming language R, and functions of the BioConductor package EBImage. The goal was to quantify the number of viable nuclei (cells) per well as an approximation for cell viability. […]

For assay [2], the system named is WM-266-4 cells expressing mutant NRASQ61K. The assay is described as above. The settings on record: Homo sapiens, WM-266-4 NRASQ61K, single agent. The method, then: as §1, §2, §3, §4
The test system of assay [3] is WM-266-4 cells expressing truncated p61-BRAFV600E. The description is as above. Particulars: Homo sapiens, WM-266-4 p61 BRafV600E, single agent. The method, then:
as §1, §2, §3, §4

The subject of assay [4] is A-375 cells expressing mutant MEK1P124L. The assay is described as above. Particulars: Homo sapiens, A-375 MEK1P124L, single agent. Here is the method:
(§5) Compound stocks are prepared in DMSO at a final concentration of 10 mM. Working stocks are serially diluted in the appropriate cell culture medium in 3-fold increments to achieve final assay concentrations ranging from 2.7 μM to 1.2 nM.
as §2
(§6) For screening, cells were seeded in 80 ul of medium in 384-well plates (Thermo Scientific, cat#4332) at 500 (A-375) or 750 (WM-266-4) cell densities per well using a MultiDrop Combi (Thermo-Fisher) with an 8-channel standard cassette. To promote an even distribution of cells across the entire well, cells were briefly centrifuged at 1000 RPM and incubated at room temperature 30 minutes. All plates were incubated at 37° C., 5% CO2 for 24 h prior to compound addition. Compound stock was freshly prepared in the appropriate culture medium, and added using a PAA robot equipped with a 200n1 pin tool. In a minimum of three replicate wells, single agent and combination effects after 72 hours, were assessed by both quantification of cellular ATP levels via Cell Titer Glo (Promega) according to the manufacturer's protocol and by microscopy imaging. For imaging, cells were fixed to the plates and permeabilized with a solution of 10% PFA, 0.3% TX-100 in PBS via a WellMate dispenser with controlled dispensing speeds. Cell nuclei were stained with Hoechst 33342 (H3570, Invitrogen), and all necessary washing steps were performed by a BioTek washer.
(§7) An automated image analysis pipeline was established using custom-made scripts in the open-source, statistical programming language R, and functions of the BioConductor package EBImage. The goal was to quantify the number of viable nuclei (cells) per well as an approximation for cell viability. The pipeline was comprised of seven steps: (I.) smoothing of the image to reduce the number of intensity peaks, (II.) application of a thresholding function to separate the foreground (signal) from the background (noise), (III.) identification of local maxima in the foreground that serve as seeds for the nuclei, (IV.) filtering of local maxima in close proximity, (V.) propagation of the nuclei from remaining local maxima, (VI.) and extraction of object features from the propagated nuclei (numbers of nuclei, size features and intensity features). As a last step (VII.), to exclude debris (e.g. fragmented nuclei) from counting, objects identified in DMSO- and Staurosporin-treated wells were used to obtain feature distributions for viable and fragmented nuclei, respectively. These were used to set cut-offs differentiating between viable and fragmented nuclei. The number of fragmented nuclei was subtracted from the total number of identified objects and the result was reported as final count for that well.
(§8) Data comprised triplicate measurements for each treatment (compound) condition, 42 replicates of DMSO-treated wells, and duplicates of Staurosporin-treated wells. The data was normalized to the median of the DMSO measurements and summarized by calculating the median of the triplicates. Data was imported into Chalice to calculate compound synergies.

The test system of assay [5] is A-375 cells expressing mutant NRASQ61K. The assay is described as above. Particulars: Homo sapiens, A-375 NRASQ61K, single agent. The method, then:
as §5, §2, §6, §7, §8

The subject of assay [6] is A-375 cells. The assay is described as above. The settings on record: Homo sapiens, A-375 parent, single agent. Here is the method:
as §5, §2, §6, §7, §8

Assay [7] has as its system WM-266-4 cells expressing mutant MEK1C121S. Described as above. Particulars: Homo sapiens, WM-266-4 MEK1C121S, single agent. Here is the method: as §5, §2, §6, §7, §8
The subject of assay [8] is WM-266-4 cells. The assay is described as above. The settings on record: Homo sapiens, WM-266-4 parent, single agent. The method, then:
as §5, §2, §6, §7, §8

The test system of assay [9] is CL-34. Nature of the assay: 72 hr cell titer Glo proliferation assay, BRAFV600E mutant CRC cell lines. Particulars: CL-34, single agent. Here is the method:
(§9) Single agent and combinatorial effects on proliferation of inhibitors of RAF (Compound of Formula (I)) and PIK3Ca (Compound X) kinases in seven BRAF-mutant CRC-derived cell lines. All cell lines express the BRAFV600E protein. Cells harboring known or putative activating mutations in the PI3Kα gene are marked with a (*) and cells with PTEN loss marked with a (#). Cell proliferation was measured in 72 hr cell titer Glo™ assays and all results supplied are the result of at least triplicate measurements. Shown are single agent IC50 values for the Compound of Formula (I) and Compound X. Synergy score (SS) measurements as well as the combination index (C150) at the 50% effect level are given for each combination) in Table 6. Interactions were deemed synergistic when SS values were ≥2.0 and CI values were ≤0.5. Interactions were deemed additive/synergistic when either SS values were ≥2.0 but CI values were >0.5 or SS values were <2.0 but CI values were ≤0.5. Interactions where termed additive when SS values were <2.0 and CI values were >0.5. Synergy calls are given in the “effect description” columns.
(In general: Cellular ATP, detected with luciferase, serves as a proxy for viable cell number.)

For assay [10], the system named is LS411N. The description is as above. Particulars: Homo sapiens, LS-411N, single agent. The method, then: as §9
Assay [11] relates to OUMS-23. Described as above. The settings on record: OUMS-23 (PTEN loss), single agent. Here is the method: as §9
In assay [12] the test system is RKO. Described as above. Particulars: Homo sapiens, RKO (PI3Kα mutation), single agent. Here is the method: as §9
For assay [13], the system named is SNU-C5. The assay is described as above. The settings on record: SNU-C5 (PI3Kα mutation), single agent. The method, then:
as §9

The subject of assay [14] is SW1417. The assay is described as above. The settings on record: Homo sapiens, SW1417, single agent. Here is the method: as §9

For `COC(=O)N[C@@H](C)CNc1nccc(-c2cn(C(C)C)nc2-c2cc(Cl)cc(NS(C)(=O)=O)c2F)n1` [Compound of Formula (I)], the IC50 in assay [1] is 849 nM; in [2], 868 nM; in assay [3], 933 nM; in assay [4], 300 nM; in [5], 133 nM; in assay [6], 4 nM. Also, the IC50 was 58 nM in assay [7]; 3 nM in assay [8]; 30 nM in [9]; 18 nM in [10]; over 2700 nM in assay [11]; 1960 nM in assay [12]. For the same compound, the IC50 in assay [13] is over 2700 nM; in [14], 235 nM.
